Data as given in patent US12502434B2, “Compound comprising EZH2 inhibitor and E3 ligase binder and pharmaceutical composition for preventing or treating EZH2-associated disease comprising same as active ingredient” (DAEGU-GYEONGBUK MEDICAL INNOVATION FOUNDATION, priority 2019, dated 2025).
Like-named read-outs stand apart in the source and are kept apart here.

Biological target: T1, EZH2 protein in LS174T cells (Homo sapiens, UniProt Q15910)
T1 construct: endogenous in cells; host or cells: LS174T
T1 sequence (Q15910 whole entry): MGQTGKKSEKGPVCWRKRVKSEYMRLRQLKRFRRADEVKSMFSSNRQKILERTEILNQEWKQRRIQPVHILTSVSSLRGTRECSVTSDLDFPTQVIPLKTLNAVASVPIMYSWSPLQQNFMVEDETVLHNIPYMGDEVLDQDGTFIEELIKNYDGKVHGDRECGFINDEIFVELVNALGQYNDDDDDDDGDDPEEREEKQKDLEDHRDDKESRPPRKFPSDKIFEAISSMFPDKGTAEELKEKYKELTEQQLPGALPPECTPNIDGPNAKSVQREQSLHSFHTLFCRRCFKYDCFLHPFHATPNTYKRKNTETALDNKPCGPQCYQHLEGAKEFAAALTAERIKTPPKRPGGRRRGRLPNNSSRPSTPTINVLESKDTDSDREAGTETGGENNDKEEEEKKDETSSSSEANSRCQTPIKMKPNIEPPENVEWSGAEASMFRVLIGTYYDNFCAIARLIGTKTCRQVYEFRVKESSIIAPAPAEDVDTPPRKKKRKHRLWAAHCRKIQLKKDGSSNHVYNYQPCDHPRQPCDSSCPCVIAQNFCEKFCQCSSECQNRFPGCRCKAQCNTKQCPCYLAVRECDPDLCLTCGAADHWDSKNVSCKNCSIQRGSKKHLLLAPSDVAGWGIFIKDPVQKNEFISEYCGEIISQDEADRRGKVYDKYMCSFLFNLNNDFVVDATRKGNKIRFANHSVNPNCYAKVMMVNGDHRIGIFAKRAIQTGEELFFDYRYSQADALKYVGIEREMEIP
T1 sequence (O75530 whole entry partner): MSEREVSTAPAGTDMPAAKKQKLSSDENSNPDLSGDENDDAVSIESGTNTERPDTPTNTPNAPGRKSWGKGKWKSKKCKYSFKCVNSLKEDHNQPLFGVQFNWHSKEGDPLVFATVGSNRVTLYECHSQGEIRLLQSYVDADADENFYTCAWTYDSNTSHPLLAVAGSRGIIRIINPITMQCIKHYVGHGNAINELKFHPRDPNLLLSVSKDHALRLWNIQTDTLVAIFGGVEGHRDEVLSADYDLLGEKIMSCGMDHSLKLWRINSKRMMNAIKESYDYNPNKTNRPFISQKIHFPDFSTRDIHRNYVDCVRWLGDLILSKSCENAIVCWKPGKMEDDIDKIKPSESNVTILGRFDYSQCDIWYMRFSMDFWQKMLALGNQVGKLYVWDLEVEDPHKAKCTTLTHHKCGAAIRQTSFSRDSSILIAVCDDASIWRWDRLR
T1 sequence (Q15022 whole entry partner): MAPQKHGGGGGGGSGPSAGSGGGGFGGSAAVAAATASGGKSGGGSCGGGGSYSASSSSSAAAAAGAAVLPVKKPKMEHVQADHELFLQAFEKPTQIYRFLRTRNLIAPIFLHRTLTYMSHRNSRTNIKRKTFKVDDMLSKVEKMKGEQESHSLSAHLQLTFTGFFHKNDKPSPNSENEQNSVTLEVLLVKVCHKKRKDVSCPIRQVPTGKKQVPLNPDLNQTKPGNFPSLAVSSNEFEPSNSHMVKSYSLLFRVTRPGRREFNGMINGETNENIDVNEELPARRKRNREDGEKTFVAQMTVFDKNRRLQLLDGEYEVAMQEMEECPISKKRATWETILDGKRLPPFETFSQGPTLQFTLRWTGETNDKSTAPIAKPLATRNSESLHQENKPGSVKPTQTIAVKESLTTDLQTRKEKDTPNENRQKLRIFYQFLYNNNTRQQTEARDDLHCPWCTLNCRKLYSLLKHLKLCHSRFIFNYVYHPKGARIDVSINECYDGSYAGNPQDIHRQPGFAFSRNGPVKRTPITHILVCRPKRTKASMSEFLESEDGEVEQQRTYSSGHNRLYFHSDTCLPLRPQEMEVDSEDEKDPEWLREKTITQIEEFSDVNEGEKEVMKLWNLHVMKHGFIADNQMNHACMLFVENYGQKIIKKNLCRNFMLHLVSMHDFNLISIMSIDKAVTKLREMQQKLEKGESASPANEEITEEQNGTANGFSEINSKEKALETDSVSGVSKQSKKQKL
Test: Proteolytic effect in colorectal cancer cells (Western blotting)
Type: cell-based
Experimental: After 72 hours of the treatment, the cells were collected and lysed using RIPA buffer (50 mM Tris, pH 7.5, 150 mM NaCl, 1% Triton X-100, 0.1% SDS, […], 0.5% deoxycholate, and protease inhibitor cocktail), followed by sonication (30 sec on/30 sec off, 5 cycles) to prepare a cell lysate.

[1] = EZH2 protein, LS174T cells, 1 μM, 72 hours
[2] = EZH2 protein, LS174T cells, 1 uM, 72 hours, Western blotting

Row | Compound | Grade (percent value of the protein degradation when treated with 1 μM) [1] | %, degradation at 1 uM [2] | EZH2 proteolytic effect by Western blotting (figure, in words) (FIGS. 1 to 5) | effect of degrading EZH2 protein when treated to colorectal cancer cells (in words) (LS174T cells) | %, degradation at 1 uM | Grade (percent value of the protein degradation when treated with 1 μM)
1 | CCN(c1cc(-c2ccc(CN3CCN(CC(=O)NCCOCCCNc4cccc5c4C(=O)N(C4CCC(=O)NC4=O)C5=O)CC3)cc2)cc(C(=O)NCc2c(C)cc(C)[nH]c2=O)c1C)C1CCOCC1 (stereo not shown) [Example 16, N-((4,6-dimethyl-2-oxo-1,2-dihydropyridine-3-yl)methyl)-4′-((4-(2-((2-(3-((2-(2,6-dioxopiperidine-3-yl)-1,3-dioxoisoindoline-4-yl)amino)propoxy)ethyl)amino)-2-oxoethyl)piperazine-1-yl)methyl)-5-(ethyl(tetrahydro-2H-pyran-4-yl)amino)-4-methyl-[1,1′-biphenyl]-3-carboxamide] |  |  |  |  | 5.51% | D (key: A: >75%; B: 50-75%; C: 25-50%; D: <25%)
2 | CCN(c1cc(-c2ccc(CN3CCN(CC(=O)NCCCOCCOc4cccc5c4C(=O)N(C4CCC(=O)NC4=O)C5=O)CC3)cc2)cc(C(=O)NCc2c(C)cc(C)[nH]c2=O)c1C)C1CCOCC1 (stereo not shown) [Example 17, N-((4,6-dimethyl-2-oxo-1,2-dihydropyridine-3-yl)methyl)-4′-((4-(2-((3-(2-((2-(2,6-dioxopiperidine-3-yl)-1,3-dioxoisoindoline-4-yl)oxy)ethoxy)propyl)amino)-2-oxoethyl)piperazine-1-yl)methyl)-5-(ethyl(tetrahydro-2H-pyran-4-yl)amino)-4-methyl-[1,1′-biphenyl]-3-carboxamide] |  |  |  |  | 3.25% | D (key: A: >75%; B: 50-75%; C: 25-50%; D: <25%)
3 | CCN(c1cc(-c2ccc(CN3CCN(CC(=O)NCCCCCCNc4cccc5c4CN(C4CCC(=O)NC4=O)C5=O)CC3)cc2)cc(C(=O)NCc2c(C)cc(C)[nH]c2=O)c1C)C1CCOCC1 (stereo not shown) [Example 20, N-((4,6-dimethyl-2-oxo-1,2-dihydropyridine-3-yl)methyl)-4′-((4-(2-((6-((2-(2,6-dioxopiperidine-3-yl)-1-oxoisoindoline-4-yl)amino)hexyl)amino)-2-oxoethyl)piperazine-1-yl)methyl)-5-(ethyl(tetrahydro-2H-pyran-4-yl)amino)-4-methyl[1,1′-biphenyl]-3-carboxamide] |  |  |  |  | 58.73% | B (key: A: >75%; B: 50-75%; C: 25-50%; D: <25%)
4 | CCN(c1cc(-c2ccc(CN3CCN(CC(=O)NCCCCCCNc4cccc5c4C(=O)N(C4CCC(=O)NC4=O)C5)CC3)cc2)cc(C(=O)NCc2c(C)cc(C)[nH]c2=O)c1C)C1CCOCC1 (stereo not shown) [Example 22, N-((4,6-dimethyl-2-oxo-1,2-dihydropyridine-3-yl)methyl)-4′-((4-(2-((6-((2-(2,6-dioxopiperidine-3-yl)-3-oxoisoindoline-4-yl)amino)hexyl)amino)-2-oxoethyl)piperazine-1-yl)methyl)-5-(ethyl(tetrahydro-2H-pyran-4-yl)amino)-4-methyl-[1,1′-biphenyl]-3-carboxamide] | D (<25%) | 0% |  |  |  | 
5 | CCN(c1cc(-c2ccc(CN3CCN(Cc4cn(CCCNc5cccc6c5C(=O)N(C5CCC(=O)NC5=O)C6=O)nn4)CC3)cc2)cc(C(=O)NCc2c(C)cc(C)[nH]c2=O)c1C)C1CCOCC1 (stereo not shown) [Example 23, N-((4,6-dimethyl-2-oxo-1,2-dihydropyridine-3-yl)methyl)-4′-((4-((1-(3-((2-(2,6-dioxopiperidine-3-yl)-1,3-dioxoisoindoline-4-yl)amino)propyl)-1H-1,2,3-triazole-4-yl)methyl)piperazine-1-yl)methyl)-5-(ethyl(tetrahydro-2H-pyran-4-yl)amino)-4-methyl-[1,1′-biphenyl]-3-carboxamide] | D (<25%) | 1.52% |  |  |  | 
6 | CCN(c1cc(-c2ccc(CN3CCN(Cc4cn(CCOCCNc5cccc6c5C(=O)N(C5CCC(=O)NC5=O)C6=O)nn4)CC3)cc2)cc(C(=O)NCc2c(C)cc(C)[nH]c2=O)c1C)C1CCOCC1 (stereo not shown) [Example 24, N-((4,6-dimethyl-2-oxo-1,2-dihydropyridine-3-yl)methyl)-4′-((4-((1-(2-(2-((2-(2,6-dioxopiperidine-3-yl)-1,3-dioxoisoindoline-4-yl)amino)ethoxy)ethyl)-1H-1,2,3-triazole-4-yl)methyl)piperazine-1-yl)methyl)-5-(ethyl(tetrahydro-2H-pyran-4-yl)amino)-4-methyl-[1,1′-biphenyl]-3-carboxamide] | D (<25%) | 0% |  |  |  | 
7 | CCN(c1cc(-c2ccc(CN3CCN(C(=O)c4cn(CCCNc5cccc6c5C(=O)N(C5CCC(=O)NC5=O)C6=O)nn4)CC3)cc2)cc(C(=O)NCc2c(C)cc(C)[nH]c2=O)c1C)C1CCOCC1 (stereo not shown) [Example 25, N-((4,6-dimethyl-2-oxo-1,2-dihydropyridine-3-yl)methyl)-4′-((4-(1-(3-((2-(2,6-dioxopiperidine-3-yl)-1,3-dioxoisoindoline-4-yl)amino)propyl)-1H-1,2,3-triazole-4-carbonyl)piperazine-1-yl)methyl)-5-(ethyl(tetrahydro-2H-pyran-4-yl)amino)-4-methyl[1,1′-biphenyl]-3-carboxamide] | D (<25%) | 7.41% |  |  |  | 
8 | CCN(c1cc(-c2ccc(CN3CCN(CC(=O)NCCN4CCN(CCNc5cccc6c5C(=O)N(C5CCC(=O)NC5=O)C6=O)CC4)CC3)cc2)cc(C(=O)NCc2c(C)cc(C)[nH]c2=O)c1C)C1CCOCC1 (stereo not shown) [Example 29, N-((4,6-dimethyl-2-oxo-1,2-dihydropyridine-3-yl)methyl)-4′-((4-(2-((2-(4-(2-((2-(2,6-dioxopiperidine-3-yl)-1,3-dioxoisoindoline-4-yl)amino)ethyl)piperazine-1-yl)ethyl)amino)-2-oxoethyl)piperazine-1-yl)methyl)-5-(ethyl(tetrahydro-2H-pyran-4-yl)amino)-4-methyl-[1,1′-biphenyl]-3-carboxamide] | D (<25%) | 0% |  |  |  | 

Second part, led by results:

Row | Grade (percent value of the protein degradation when treated with 1 μM) [1] | %, degradation at 1 uM [2] | EZH2 proteolytic effect by Western blotting (figure, in words) (FIGS. 1 to 5) | effect of degrading EZH2 protein when treated to colorectal cancer cells (in words) (LS174T cells) | Compound | %, degradation at 1 uM | Grade (percent value of the protein degradation when treated with 1 μM)
9 | D (<25%) | 16.74% |  |  | CCN(c1cc(-c2ccc(CN3CCN(CC(=O)NCCOCCCOc4cccc5c4C(=O)N(C4CCC(=O)NC4=O)C5=O)CC3)cc2)cc(C(=O)NCc2c(C)cc(C)[nH]c2=O)c1C)C1CCOCC1 (stereo not shown) [Example 18, N-((4,6-dimethyl-2-oxo-1,2-dihydropyridine-3-yl)methyl)-4′-((4-(2-((2-(3-((2-(2,6-dioxopiperidine-3-yl)-1,3-dioxoisoindoline-4-yl)oxy)propoxy)ethyl)amino)-2-oxoethyl)piperazine-1-yl)methyl)-5-(ethyl(tetrahydro-2H-pyran-4-yl)amino)-4-methyl-[1,1′-biphenyl]-3-carboxamide] |  | 
10 | D (<25%) | 9.07% |  |  | CCN(c1cc(-c2ccc(CN3CCN(CCOCCCCCCNc4cccc5c4C(=O)N(C4CCC(=O)NC4=O)C5=O)CC3)cc2)cc(C(=O)NCc2c(C)cc(C)[nH]c2=O)c1C)C1CCOCC1 (stereo not shown) [Example 19, N-((4,6-dimethyl-2-oxo-1,2-dihydropyridine-3-yl)methyl)-4′-((4-(2-((6-((2-(2,6-dioxopiperidine-3-yl)-1,3-dioxoisoindoline-4-yl)amino)hexyl)oxy)ethyl)piperazine-1-yl)methyl)-5-(ethyl(tetrahydro-2H-pyran-4-yl)amino)-4-methyl-[1,1′-biphenyl]-3-carboxamide] |  | 
11 | A (>75%) | 83.09% | confirming the EZH2 proteolytic effect | excellent effects | CCN(c1cc(-c2ccc(CN3CCN(CCNCCCCCCNc4cccc5c4C(=O)N(C4CCC(=O)NC4=O)C5=O)CC3)cc2)cc(C(=O)NCc2c(C)cc(C)[nH]c2=O)c1C)C1CCOCC1 (stereo not shown) [Example 21, N-((4,6-dimethyl-2-oxo-1,2-dihydropyridine-3-yl)methyl)-4′-((4-(2-((6-((2-(2,6-dioxopiperidine-3-yl)-1,3-dioxoisoindoline-4-yl)amino)hexyl)amino)ethyl)piperazine-1-yl)methyl)-5-(ethyl(tetrahydro-2H-pyran-4-yl)amino)-4-methyl-[1,1′-biphenyl]-3-carboxamide] |  | 
12 | D (<25%) | 2.27% |  |  | CCN(c1cc(-c2ccc(CN3CCN(CC(=O)NCCCCCOCCCOCC(=O)Nc4cccc5c4CN(C4CCC(=O)NC4=O)C5=O)CC3)cc2)cc(C(=O)NCc2c(C)cc(C)[nH]c2=O)c1C)C1CCOCC1 (stereo not shown) [Example 27, N-((4,6-dimethyl-2-oxo-1,2-dihydropyridine-3-yl)methyl)-4′-((4-(2-((5-(3-(2-((2-(2,6-dioxopiperidine-3-yl)-1-oxoisoindoline-4-yl)amino)-2-oxoethoxy)propoxy)pentyl)amino)-2-oxoethyl)piperazine-1-yl)methyl)-5-(ethyl(tetrahydro-2H-pyran-4-yl)amino)-4-methyl-[1,1′-biphenyl]-3-carboxamide] |  | 
13 | D (<25%) | 0% |  |  | CCN(c1cc(-c2ccc(CN3CCN(CC(=O)NCCCCCOCCCOCC(=O)Nc4cccc5c4C(=O)N(C4CCC(=O)NC4=O)C5=O)CC3)cc2)cc(C(=O)NCc2c(C)cc(C)[nH]c2=O)c1C)C1CCOCC1 (stereo not shown) [Example 28, N-((4,6-dimethyl-2-oxo-1,2-dihydropyridine-3-yl)methyl)-4′-((4-(2-((5-(3-(2-((2-(2,6-dioxopiperidine-3-yl)-1,3-dioxoisoindoline-4-yl)amino)-2-oxoethoxy)propoxy)pentyl)amino)-2-oxoethyl)piperazine-1-yl)methyl)-5-(ethyl(tetrahydro-2H-pyran-4-yl)amino)-4-methyl-[1,1′-biphenyl]-3-carboxamide] |  | 
